Laboratory results from ChEMBL document CHEMBL4480391, “Discovery and synthesis of sulfur-containing 6-substituted 5,8-dimethoxy-1,4-naphthoquinone oxime derivatives as new and potential anti-MDR cancer agents” (Eur J Med Chem, 2019).
The source made the active and inactive calls. The rule behind the calls is not given here.

Key:
[1] = Selectivity index, ratio of IC50 for human HSF cells to IC50 for human HCT15 cells; assay type: toxicity; conditions: HSF cells versus HCT15 cells, read-out: Ratio IC50
A549 = experiment: Cytotoxicity against human A549 cells after 72 hrs by MTT assay; assay type: functional, cell-based; conditions: A549, 72 h
[2] = Cytotoxicity against human HSF cells after 72 hrs by MTT assay; assay type: cell-based
MGC-803 [3] = experiment: Cytotoxicity against human MGC803 cells after 72 hrs by MTT assay; assay type: functional, cell-based; conditions: MGC-803, 72 h
Bel7402/5-FU [4] = experiment: Cytotoxicity against human Bel7402/5-FU cells after 72 hrs by MTT assay; assay type: functional, cell-based
K562 [5] = experiment: Cytotoxicity against human K562 cells after 72 hrs by MTT assay; assay type: functional, cell-based; conditions: K562, 72 h
A549/TR = experiment: Cytotoxicity against human A549/TAX cells after 72 hrs by MTT assay; assay type: functional, cell-based
[6] = Selectivity ratio of IC50 for human […] cells to IC50 for human Bel7402/5-FU cells; assay type: functional
[7] = Selectivity ratio of IC50 for human MCF7 cells to IC50 for human MCF7/ADR cells; assay type: functional
[8] = Cytotoxicity against human […] cells after 72 hrs by MTT assay; assay type: functional, cell-based
MCF7 = experiment: Cytotoxicity against human MCF7 cells after 72 hrs by MTT assay; assay type: functional, cell-based; conditions: MCF7, 72 h
[9] = Selectivity ratio of IC50 for human A549 cells to IC50 for human A549/TAX cells; assay type: functional
NCI/ADR-RES = experiment: Cytotoxicity against human MCF7/ADR cells after 72 hrs by MTT assay; assay type: functional, cell-based
HCT-15 [10] = experiment: Cytotoxicity against human HCT15 cells after 72 hrs by MTT assay; assay type: functional, cell-based; conditions: HCT-15, 72 h
Bel7402/5-FU [11] = experiment: Cell cycle arrest in human Bel7402/5-FU cells assessed as decrease in accumulation at S phase at 0.25 to 1 uM measured after 24 hrs by propidium iodide staining based flow cytometry; assay type: functional
Bel7402/5-FU [12] = experiment: Induction of apoptosis in human Bel7402/5-FU cells assessed as necrotic cells at 2 uM measured after 24 hrs by Annexin V-FITC/propidium iodide staining based flow cytometry (reference value: 0.137%); assay type: functional
HCT-15 [13] = experiment: Potency index, ratio of shikonin IC50 to test compound IC50 for human HCT15 cells; assay type: functional
Bel7402/5-FU [14] = experiment: Induction of apoptosis in human Bel7402/5-FU cells measured after 24 hrs by Annexin V-FITC/propidium iodide staining based flow cytometry; assay type: functional, cell-based
Bel7402/5-FU [15] = experiment: Induction of apoptosis in human Bel7402/5-FU cells assessed as early apoptotic cells at 2 uM measured after 24 hrs by Annexin V-FITC/propidium iodide staining based flow cytometry (reference value: 2.8%); assay type: functional
Bel7402/5-FU [16] = experiment: Induction of apoptosis in human Bel7402/5-FU cells assessed as early apoptotic cells at 0.5 uM measured after 24 hrs by Annexin V-FITC/propidium iodide staining based flow cytometry (reference value: 2.8%); assay type: functional
Bel7402/5-FU [17] = experiment: Induction of apoptosis in human Bel7402/5-FU cells assessed as late apoptotic cells at 1 uM measured after 24 hrs by Annexin V-FITC/propidium iodide staining based flow cytometry (reference value: 8.05%); assay type: functional
Bel7402/5-FU [18] = experiment: Cell cycle arrest in human Bel7402/5-FU cells assessed as increase in accumulation at G1 phase measured after 24 hrs by propidium iodide staining based flow cytometry; assay type: functional
Bel7402/5-FU [19] = experiment: Induction of apoptosis in human Bel7402/5-FU cells assessed as cell shrinkage at 0.5 to 2 uM measured after 24 hrs by Hoechst 33342/propidium iodide staining based fluorescence microscopy; assay type: functional
Bel7402/5-FU [20] = experiment: Induction of apoptosis in human Bel7402/5-FU cells assessed as late apoptotic cells at 2 uM measured after 24 hrs by Annexin V-FITC/propidium iodide staining based flow cytometry (reference value: 8.05%); assay type: functional
Bel7402/5-FU [21] = experiment: Induction of apoptosis in human Bel7402/5-FU cells assessed as early apoptotic cells at 1 uM measured after 24 hrs by Annexin V-FITC/propidium iodide staining based flow cytometry (reference value: 2.8%); assay type: functional
Bel7402/5-FU [22] = experiment: Induction of apoptosis in human Bel7402/5-FU cells assessed as necrotic cells at 1 uM measured after 24 hrs by Annexin V-FITC/propidium iodide staining based flow cytometry (reference value: 0.137%); assay type: functional
Bel7402/5-FU [23] = experiment: Induction of apoptosis in human Bel7402/5-FU cells assessed as nuclear fragmentation at 0.5 to 2 uM measured after 24 hrs by Hoechst 33342/propidium iodide staining based fluorescence microscopy; assay type: functional, cell-based
Bel7402/5-FU [24] = experiment: Induction of apoptosis in human Bel7402/5-FU cells assessed as necrotic cells at 0.5 uM measured after 24 hrs by Annexin V-FITC/propidium iodide staining based flow cytometry (reference value: 0.137%); assay type: functional
Bel7402/5-FU [25] = experiment: Induction of apoptosis in human Bel7402/5-FU cells assessed as late apoptotic cells at 0.5 uM measured after 24 hrs by Annexin V-FITC/propidium iodide staining based flow cytometry (reference value: 8.05%); assay type: functional
Bel7402/5-FU [26] = experiment: Cell cycle arrest in human Bel7402/5-FU cells assessed as decrease in accumulation at G2/M phase at 0.25 to 1 uM measured after 24 hrs by propidium iodide staining based flow cytometry; assay type: functional
Bel7402/5-FU [27] = experiment: Inhibition of colony formation in human Bel7402/5-FU cells up to 4 uM measured after 10 days by giemsa staining based assay; assay type: functional, cell-based
Bel7402/5-FU [28] = experiment: Cell cycle arrest in human Bel7402/5-FU cells assessed as accumulation at G1 phase at 1 uM measured after 24 hrs by propidium iodide staining based flow cytometry (reference value: 26.32%); assay type: functional
Bel7402/5-FU [29] = experiment: Induction of apoptosis in human Bel7402/5-FU cells assessed as increase in ratio of Bax/Bcl2 level at 0.5 to 4 uM measured after 24 to 48 hrs by Western blot analysis; assay type: functional, cell-based
Bel7402/5-FU [30] = experiment: Induction of apoptosis in human Bel7402/5-FU cells assessed as viable cells at 0.5 uM measured after 24 hrs by Annexin V-FITC/propidium iodide staining based flow cytometry (reference value: 89%); assay type: functional; conditions: read-out: Activity
MGC-803 [31] = experiment: Potency index, ratio of shikonin IC50 to test compound IC50 for human MGC803 cells; assay type: functional
Bel7402/5-FU [32] = experiment: Cell cycle arrest in human Bel7402/5-FU cells assessed as accumulation at G1 phase at 0.25 uM measured after 24 hrs by propidium iodide staining based flow cytometry (reference value: 26.32%); assay type: functional
Bel7402/5-FU [33] = experiment: Induction of apoptosis in human Bel7402/5-FU cells assessed as viable cells at 1 uM measured after 24 hrs by Annexin V-FITC/propidium iodide staining based flow cytometry (reference value: 89%); assay type: functional; conditions: read-out: Activity
K562 [34] = experiment: Potency index, ratio of shikonin IC50 to test compound IC50 for human K562 cells; assay type: functional
Bel7402/5-FU [35] = experiment: Cell cycle arrest in human Bel7402/5-FU cells assessed as accumulation at G1 phase at 0.5 uM measured after 24 hrs by propidium iodide staining based flow cytometry (reference value: 26.32%); assay type: functional
Bel7402/5-FU [36] = experiment: Induction of apoptosis in human Bel7402/5-FU cells assessed as viable cells at 2 uM measured after 24 hrs by Annexin V-FITC/propidium iodide staining based flow cytometry (reference value: 89%); assay type: functional; conditions: read-out: Activity

CCCCCCCCC(SC(=O)c1ccc(C)cc1)c1cc(OC)c2c(c1OC)/C(=N/O)C=C/C2=N\O (configuration not stated)
selectivity ratio [1]: > 94.3
IC50 (A549): 13900 nM
IC50 [2]: > 50000 nM
IC50 (MGC-803 [3]): 940 nM
IC50 (Bel7402/5-FU [4]): 760 nM
IC50 (K562 [5]): 970 nM
IC50 (A549/TR): 1820 nM
Ratio IC50 [6]: 1.22
Ratio IC50 [7]: 4.74
IC50 [8]: 930 nM
IC50 (MCF7): 18800 nM
Ratio IC50 [9]: 7.62
IC50 (NCI/ADR-RES): 3980 nM
IC50 (HCT-15 [10]): 530 nM

CCCCCCCCC(SC(=O)/C=C/c1ccccc1)c1cc(OC)c2c(c1OC)/C(=N/O)C=C/C2=N\O (configuration not stated)
Activity (Bel7402/5-FU [11]): Active
Activity (Bel7402/5-FU [12]): 1.7%
Ratio IC50 (HCT-15 [13]): 2
Activity (Bel7402/5-FU [14]): Dose-dependent effect
selectivity ratio [1]: > 132
Activity (Bel7402/5-FU [15]): 58.3%
Activity (Bel7402/5-FU [16]): 22.1%
IC50 (A549): 6570 nM
IC50 [2]: > 50000 nM
Activity (Bel7402/5-FU [17]): 15.2%
Activity (Bel7402/5-FU [18]): Dose-dependent effect
Activity (Bel7402/5-FU [19]): Active
Activity (Bel7402/5-FU [20]): 29.2%
IC50 (MGC-803 [3]): 790 nM
Activity (Bel7402/5-FU [21]): 32.2%
Activity (Bel7402/5-FU [22]): 4.64%
Activity (Bel7402/5-FU [23]): Active
Activity (Bel7402/5-FU [24]): 1.17%
IC50 (Bel7402/5-FU [4]): 290 nM
IC50 (K562 [5]): 460 nM
Activity (Bel7402/5-FU [25]): 12.3%
IC50 (A549/TR): 720 nM
Ratio IC50 [6]: 1.45
Activity (Bel7402/5-FU [26]): Active
inhibition (Bel7402/5-FU [27]): Active
Ratio IC50 [7]: 8.37
Activity (Bel7402/5-FU [28]): 50.69%
IC50 [8]: 420 nM
IC50 (MCF7): 11100 nM
Activity (Bel7402/5-FU [29]): Active
Ratio IC50 [9]: 9.13
viability at 0.5 µM (Bel7402/5-FU [30]): 64.4%
IC50 (NCI/ADR-RES): 1330 nM
Ratio IC50 (MGC-803 [31]): 2
Activity (Bel7402/5-FU [32]): 35.56%
viability at 1 µM (Bel7402/5-FU [33]): 47.9%
Ratio IC50 (K562 [34]): 2
Activity (Bel7402/5-FU [35]): 44.5%
IC50 (HCT-15 [10]): 380 nM
viability at 2 µM (Bel7402/5-FU [36]): 10.7%

CCCCCCCCCC(SC(=O)c1cc(OC)c(OC)c(OC)c1)c1cc(OC)c2c(c1OC)/C(=N/O)C=C/C2=N\O (configuration not stated)
selectivity ratio [1]: > 61
IC50 (A549): 16100 nM
IC50 [2]: > 50000 nM
IC50 (MGC-803 [3]): 1250 nM
IC50 (Bel7402/5-FU [4]): 1120 nM
IC50 (K562 [5]): 790 nM
IC50 (A549/TR): 1010 nM
Ratio IC50 [6]: 1.2
Ratio IC50 [7]: 3.51
IC50 [8]: 1340 nM
IC50 (MCF7): 19300 nM
Ratio IC50 [9]: 15.9
IC50 (NCI/ADR-RES): 5480 nM
IC50 (HCT-15 [10]): 820 nM

CCCCCCCCC(SC(=O)c1cc(OC)c(OC)c(OC)c1)c1cc(OC)c2c(c1OC)/C(=N/O)C=C/C2=N\O (configuration not stated)
selectivity ratio [1]: > 100
IC50 (A549): 9280 nM
IC50 [2]: > 50000 nM
IC50 (MGC-803 [3]): 910 nM
IC50 (Bel7402/5-FU [4]): 310 nM
IC50 (K562 [5]): 680 nM
IC50 (A549/TR): 810 nM
Ratio IC50 [6]: 1.81
Ratio IC50 [7]: 6.01
IC50 [8]: 560 nM
IC50 (MCF7): 14800 nM
Ratio IC50 [9]: 11.5
IC50 (NCI/ADR-RES): 2470 nM
IC50 (HCT-15 [10]): 500 nM
